Measurements: publication PMC11460631, “Inhibition of transient receptor potential vanilloid 3 channels by antimalarial hydroxychloroquine alleviates TRPV3-dependent dermatitis” (The Journal of Biological Chemistry, 2024)
Where two headings read alike, the source gives them in different places.

Experiments:
TRPV3 = molecular target: T1, TRPV3 (Homo sapiens, UniProt Q8NET8); assay: Whole-cell patch-clamp recordings of TRPV3 currents in transfected HEK293T cells; type: cell-based; conditions: for IC50: ± 80 mV
T1 construct: YFP or GFP; expressed in transfected cells; host or cells: HEK293T
T1 sequence (Q8NET8 1-790): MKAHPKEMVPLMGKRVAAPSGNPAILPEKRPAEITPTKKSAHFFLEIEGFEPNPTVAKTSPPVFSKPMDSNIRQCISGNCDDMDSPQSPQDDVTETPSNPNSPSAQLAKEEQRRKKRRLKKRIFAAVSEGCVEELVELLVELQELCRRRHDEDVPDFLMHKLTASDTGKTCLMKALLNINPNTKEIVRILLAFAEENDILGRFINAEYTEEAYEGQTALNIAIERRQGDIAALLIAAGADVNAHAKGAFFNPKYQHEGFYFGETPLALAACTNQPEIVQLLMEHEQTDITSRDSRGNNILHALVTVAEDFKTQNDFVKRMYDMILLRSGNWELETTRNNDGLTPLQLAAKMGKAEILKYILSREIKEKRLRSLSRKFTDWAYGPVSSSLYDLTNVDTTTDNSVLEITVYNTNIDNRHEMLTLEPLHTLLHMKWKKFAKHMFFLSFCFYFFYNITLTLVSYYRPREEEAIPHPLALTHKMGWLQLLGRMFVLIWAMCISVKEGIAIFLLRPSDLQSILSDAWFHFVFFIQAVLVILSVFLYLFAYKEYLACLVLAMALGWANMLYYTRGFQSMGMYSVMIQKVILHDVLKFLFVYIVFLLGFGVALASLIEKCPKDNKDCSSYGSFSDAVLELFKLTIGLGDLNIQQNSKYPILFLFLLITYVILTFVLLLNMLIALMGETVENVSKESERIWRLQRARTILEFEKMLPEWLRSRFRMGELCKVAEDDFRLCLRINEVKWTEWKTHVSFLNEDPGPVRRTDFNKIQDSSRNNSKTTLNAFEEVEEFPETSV
Procedure: (§1) HEK293T cells are cultured using Dulbecco's modified Eagle's medium containing 10% fetal bovine serum and 1% penicillin-streptomycin in a cell incubator with 5% CO2 at 37 °C. Plasmids of murine TRPV1, TRPV4, TRPM8, and human TRPV3, TRPA1 are labeled with YFP or GFP as indicators for subsequent electrophysiological recordings. Complementary DNA constructs of ion channels were transiently transfected with Lipofectamine 3000 (Invitrogen). And 12 to 18 h after transient transfection, electrophysiological recordings were performed.
Patch-clamp recordings were carried out with a HEKA EPC10 amplifier controlled by PatchMaster software (HEKA; https://www.heka.com/products/products_main.html#soft_pm) ([36]). Patch pipettes were prepared from borosilicate glass and fire-polished to the resistance of 3 to 8 MΩ by P-97 puller for whole-cell recordings. For single-channel recordings, patch pipettes were fire-polished to a higher resistance of 6 to 10 MΩ. Both bath solution and pipette solution contained 130 mM NaCl, 10 mM glucose, 0.2 mM EDTA, and 3 mM Hepes and were adjusted to pH 7.2 to 7.4 with NaOH. Whole-cell recordings and single-channel recordings were performed at ± 80 mV. The current was sampled at 10 kHz and filtered at 2.9 kHz. All recordings were performed at room temperature (25 °C). A gravity-driven system (RSC-200, Bio-Logic) with freely rotated perfusion tubes was used for the perfusion of ligands. Bath and ligand solutions were delivered through separate tubes to minimize the mixing of solutions. Patch pipette holding cells were placed in front of the perfusion tube outlet for perfusion.
All data from whole-cell recordings were analyzed in Igor Pro (WaveMetrics). IC50 values were determined by fitting the Hill equation to concentration-response relationships. Data are shown as mean ± SEM. Statistical significance between two groups was conducted with an unpaired two-tailed t test, and statistical significance among multiple groups was conducted with one-way ANOVA using Dunnett’s multiple comparisons test or Tukey's post hoc test. Differences were regarded as statistically significant with ∗, p < 0.05; ∗∗, p < 0.01; ∗∗∗, p < 0.001; ∗∗∗∗, and p < 0.0001; N.S., no significance.

hTRPA1 = molecular target: T2, hTRPA1 (Homo sapiens, UniProt O75762); assay: Whole-cell current recordings, hTRPA1; type: cell-based; conditions: 100 μM HCQ; current activated by 500 μM allyl isothiocyanate
T2 construct: YFP or GFP; expressed in transfected cells; host or cells: HEK293T
T2 sequence (O75762 whole entry): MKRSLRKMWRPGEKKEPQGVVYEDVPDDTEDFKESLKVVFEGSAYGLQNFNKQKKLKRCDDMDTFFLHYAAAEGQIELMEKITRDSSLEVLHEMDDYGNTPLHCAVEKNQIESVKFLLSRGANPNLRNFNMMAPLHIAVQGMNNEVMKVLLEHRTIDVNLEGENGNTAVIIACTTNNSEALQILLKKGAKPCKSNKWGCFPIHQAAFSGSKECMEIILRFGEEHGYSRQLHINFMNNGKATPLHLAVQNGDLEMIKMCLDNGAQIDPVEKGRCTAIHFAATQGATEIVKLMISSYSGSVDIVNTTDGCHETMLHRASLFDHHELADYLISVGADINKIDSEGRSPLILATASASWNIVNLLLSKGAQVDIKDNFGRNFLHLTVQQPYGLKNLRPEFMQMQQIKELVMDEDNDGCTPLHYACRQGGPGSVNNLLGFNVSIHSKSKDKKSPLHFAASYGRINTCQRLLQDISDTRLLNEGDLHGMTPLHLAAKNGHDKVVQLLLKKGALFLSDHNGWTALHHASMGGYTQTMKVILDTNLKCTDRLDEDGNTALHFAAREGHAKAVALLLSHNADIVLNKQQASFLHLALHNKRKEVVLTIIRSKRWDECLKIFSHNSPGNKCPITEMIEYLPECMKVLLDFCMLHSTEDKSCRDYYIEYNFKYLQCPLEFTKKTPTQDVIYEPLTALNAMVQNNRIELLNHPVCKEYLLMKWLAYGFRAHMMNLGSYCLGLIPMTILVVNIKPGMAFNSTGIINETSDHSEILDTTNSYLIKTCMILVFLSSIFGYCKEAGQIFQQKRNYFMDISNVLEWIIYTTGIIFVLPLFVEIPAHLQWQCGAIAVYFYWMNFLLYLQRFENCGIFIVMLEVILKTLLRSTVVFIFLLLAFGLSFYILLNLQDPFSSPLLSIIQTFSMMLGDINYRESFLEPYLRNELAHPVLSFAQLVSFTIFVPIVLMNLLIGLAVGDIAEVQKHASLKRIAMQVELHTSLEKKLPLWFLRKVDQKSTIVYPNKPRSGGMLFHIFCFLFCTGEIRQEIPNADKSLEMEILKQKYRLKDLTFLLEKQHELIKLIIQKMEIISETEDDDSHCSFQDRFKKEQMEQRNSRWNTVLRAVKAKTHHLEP
Procedure: To elucidate the specificity of HCQ inhibition on TRPV3, we conducted whole-cell current recordings on other known pruritus-related TRP channels, such as hTRPA1, mTRPV1, mTRPV4, and mTRPM8 (Fig. 3, A and F). […] Because of the relatively larger inhibition of HCQ on mTRPM8 current, we tested the concentration dependence of HCQ on mTRPM8 channels.
as §1
Patch-clamp recordings were carried out with a HEKA EPC10 amplifier controlled by PatchMaster software (HEKA; https://www.heka.com/products/products_main.html#soft_pm) ([36]). Patch pipettes were prepared from borosilicate glass and fire-polished to the resistance of 3 to 8 MΩ by P-97 puller for whole-cell recordings. For single-channel recordings, patch pipettes were fire-polished to a higher resistance of 6 to 10 MΩ. […]

IC50 (TRPV3; HEK293T cells expressing TRPV3, whole-cell, 1 mM 2-APB, read-out: IC50, inhibition of TRPV3 currents induced by 1 mM 2-APB): 51.7 ± 4.78 µM
inhibition at 100 µM (TRPV3; HEK-293T, 100 μM HCQ, 1 mM 2-APB, read-out: inhibition of WT TRPV3 channels): 75.6%
IC50 (TRPV3; whole-cell, 1 mM carvacrol, read-out: IC50, inhibition of TRPV3 current induced by carvacrol): 1.07 ± 0.38 µM
reduction of hTRPA1 current (hTRPA1): 11.37% ± 4.10%
Structure (SMILES): CCN(CCO)CCCC(C)Nc1ccnc2cc(Cl)ccc12 (stereo not shown) [HCQ, hydroxychloroquine]
